Test results taken from patent US7378234B2, “Method for isolating hepatitis C virus peptides” (Intercell AG, priority 2002, dated 2008).
Entries after “also recorded” stand apart in the source; their conditions may differ.

Experiments:
[1] = system: HLA-A*0201 transgenic mice; test: Immunization of HLA-A*0201 transgenic mice (peptide + CpI), splenocyte IFN-gamma ELISpot; type: in vivo, mouse; details: for immunogenicity in HLA-A*0201 transgenic mice (in words): Example II, IFN-gamma ELISpot of splenocytes; for Immunogenicity, peptide-specific IFN-gamma-producing cells, A*0201: HLA-A*0201 transgenic mice, splenocytes
Experimental: (§1) Immunogenicity of synthetic HCV-derived peptides was tested in HLA-DRB1*0401- and HLA-A*0201-transgenic mice as follows: Groups of 3 mice (female, 8 weeks of age) were injected subcutaneously into the flank (in total 100 μg of peptide +30 μg oligodinucleotide CpI (Purimex, Göttingen, Germany) per mouse).
(§2) Mouse splenocyte ELIspot assay for single cell IFN-gamma release ELISpot plates (MAHA S4510, Millipore, Germany) were rinsed with PBS (200 μl/well), coated with anti-mouse IFN-gamma mAb (clone R46A2; 100 μl/well of 5 μg/ml in 0.1 M NaHCO3, pH 9.2-9.5) and incubated overnight at 4° C. Plates were washed four times with PBS/0.1% Tween 20 and incubated with PBS/1% BSA (200 μl/well) at room temperature for 2 h to block nonspecific binding. Spleen cells from vaccinated mice were prepared and plated at 1×10^6-3×10^5 cells/well and incubated overnight at 37° C./5% CO2 either in the presence of the immunizing antigen (peptide), control peptides or with medium alone. Subsequently, plates were washed four times and incubated with biotinylated anti-mouse IFN-gamma mAb (clone AN18.17.24, 100 μl/well of 2 μg/ml in PBS/1% BSA) for 2 h at 37° C. After washing, streptavidin-peroxidase (Roche Diagnostics, Vienna, Austria) was added ( 1/5000 in PBS, 100 μl/well) and plates were incubated at room temperature for 2 additional hours. Subsequently, substrate was added to the washed plates (100 μl/well of a mixture of 10 ml 100 mM Tris pH 7.5 supplemented with 200 μl of 40 mg/ml DAB stock containing 50 μl of 80 mg/ml NiCl2 stock and 5 μl of 30% H2O2). The reaction was stopped after 20-30 minutes by washing the plates with tap water. Dried plates were evaluated with an ELISpot reader (BIOREADER 2000, BioSys, Karben, Germany).
(§3) As summarized in Table 3, some peptides were either immunogenic (+, less than 100 peptide-specific cells among a million splenocytes) or even strongly immunogenic (++, more than 100 peptide-specific cells among a million splenocytes) in DR4- and/or A*0201-transgenic mice.

[2] = system: HLA-DRB1*0401 transgenic mice; test: Immunization of HLA-DRB1*0401 transgenic mice (peptide + CpI), splenocyte IFN-gamma ELISpot; type: in vivo, mouse; details: for immunogenicity in HLA-DRB1*0401 transgenic mice (in words): Example II, IFN-gamma ELISpot of splenocytes; for Immunogenicity, peptide-specific IFN-gamma-producing cells, DRB1*0401: HLA-DRB1*0401 transgenic mice, splenocytes
Experimental: as §1, §2, §3

[3] = system: HLA-B*0702 transgenic mice; test: Vaccination of HLA-B*0702 transgenic mice (peptide + IC31), IFN-gamma ELISpot with spleen cells and CD8+ fraction; type: in vivo, mouse; details: for Immunogenicity, peptide-specific IFN-gamma-producing cells, B*0702: HLA-B*0702 transgenic mice, splenocytes; for specific INF-γ producing T cells / HLA-B*0702 epitope in HLA-B*0702 transgenic mice (in words): peptide + IC31, whole spleen cells and CD8+ fraction
Experimental: as §2
Groups of 5 mice (HLA-A*0201-, HLA-DRB1*0401- and HLA-B*0702 transgenic mice, male, 8-14 weeks of age) were injected subcutaneous into the hind footpads with 100 μg of peptide +IC31 per mouse (50 μg per footpad). (PCT/EP01/12041, WO 02/32451 A1 and PCT/EP01/06433, WO 01/93905 A1; IC31 is a combination of the immunizer disclosed in WO 01/93905 and WO 02/32451).
6 days after vaccination single cell suspension of pooled spleens were prepared and additionally pure fractions of CD8+ in the case of A2 and B7 tg mice (CD8+ fraction for B7 mice containing 97% of CD8 and 1.5% of CD4 cells and for A2 tg mice 83% of CD8 and 8% of CD4 cells) and CD4+ for DR4tg mice (CD4+ fraction for DR4tg mice containing 98% of CD4 cells and 0.2% of CD8 cells) were separated from the spleen cell suspension using MACS separating kit (Miltenyi, Germany).

[4] = target: HLA-DRB1*0404 (Homo sapiens, UniProt P01903+P01911, A100R/A169T/F76Y/I96L/K127E/L162R/M171V/N62H/P40V/Q125Y/R42H/S133A/S149N/S66Y/V209L/W38E); test: Epitope capture / peptide binding, SDS-stability assay, soluble DRB1*0404; details: soluble HLA class II, individual peptide confirmed (Table 2)
[5] = target: HLA-DRB1*0101 (Homo sapiens, UniProt P01903+P01911, A100R/D57E/F55L/F60I/F76Y/I96L/L162R/M171V/P40L/Q125E/R42F/V115G/Y59C); test: Epitope capture / peptide binding, SDS-stability assay, soluble DRB1*0101; details: soluble HLA class II, individual peptide confirmed (Table 2)

| Sequence | immunogenicity in HLA-A*0201 transgenic mice (in words) [1] | Immunogenicity, peptide-specific IFN-gamma-producing cells, A*0201 [1] | immunogenicity in HLA-DRB1*0401 transgenic mice (in words) [2] | Immunogenicity, peptide-specific IFN-gamma-producing cells, DRB1*0401 [2] | Immunogenicity, peptide-specific IFN-gamma-producing cells, B*0702 [3] | specific INF-γ producing T cells / HLA-B*0702 epitope in HLA-B*0702 transgenic mice (in words) [3] | Binding to DRB1 *0404 [4] | Binding to DRB1 *0101 [5] |
| --- | --- | --- | --- | --- | --- | --- | --- | --- |
| PEYDLELITSCSSNVSVA [Peptide 1627] | immunogenicity | + (immunogenic (+, less than 100 peptide-specific cells among a million splenocytes)) | immunogenic; also recorded: immunogenicity | + (immunogenic (+, less than 100 peptide-specific cells among a million splenocytes)) | ++ (strongly immunogenic (++, more than 100 peptide-specific cells among a million splenocytes)) | HLA-B*0702 epitopes with T-cell activating capacity |  |  |
| GAAVGSIGLGKVLVDILAGYGAGISGALVAFKIMSGE [Peptide 1555] | immunogenicity | + (immunogenic (+, less than 100 peptide-specific cells among a million splenocytes)) | immunogenicity | + (immunogenic (+, less than 100 peptide-specific cells among a million splenocytes)) | + (immunogenic (+, less than 100 peptide-specific cells among a million splenocytes)) | HLA-B*0702 epitopes with T-cell activating capacity |  |  |
| SGMFDSVVLCECYDAGAAWYELTPAETTVRLRAY [Peptide 1563] |  |  | immunogenicity | + (immunogenic (+, less than 100 peptide-specific cells among a million splenocytes)) | + (immunogenic (+, less than 100 peptide-specific cells among a million splenocytes)) | HLA-B*0702 epitopes with T-cell activating capacity |  |  |
| VDYPYRLWHYPCTVNYTIFKIRMYVGGVEHRL [Peptide 1651] | immunogenicity | ++ (strongly immunogenic (++, more than 100 peptide-specific cells among a million splenocytes)) | immunogenicity | ++ (strongly immunogenic (++, more than 100 peptide-specific cells among a million splenocytes)) | + (immunogenic (+, less than 100 peptide-specific cells among a million splenocytes)) | HLA-B*0702 epitopes with T-cell activating capacity |  |  |
| LLFLLLADARVCACLWM [Peptide 1630] | immunogenic | ++ (strongly immunogenic (++, more than 100 peptide-specific cells among a million splenocytes)) | immunogenic; also recorded: immunogenicity | ++ (strongly immunogenic (++, more than 100 peptide-specific cells among a million splenocytes)) |  |  | nb (no binding) | * (weak binding) |
| DPRHRSRNVGKVIDTLTCGFADLMGYIPVVGAPLGG [Peptide 1649] |  |  | immunogenicity | + (immunogenic (+, less than 100 peptide-specific cells among a million splenocytes)) |  |  |  |  |
| LPALSTGLIHLHQNIVDVQYLYG [Peptide 1656] |  |  | immunogenicity | + (immunogenic (+, less than 100 peptide-specific cells among a million splenocytes)) |  |  |  |  |
| SGHRMAWDMMMNWSPT [Peptide 1631] | immunogenicity | + (immunogenic (+, less than 100 peptide-specific cells among a million splenocytes)) | immunogenic | + (immunogenic (+, less than 100 peptide-specific cells among a million splenocytes)) |  |  |  | nb (no binding) |
